These results are taken from patent US4416877A, “Anti-atherosclerotic pharmaceutical compositions containing diphosphonate compounds” (priority 1979, dated 1983).

One assay concerns lipid metabolism. The assay can be described thus: Effects of diphosphonates on lipid metabolism in normal rats (serum lipids, α/β cholesterol). The class given is in vivo, male Wistar rats. The settings on record: for Serum Chol. α/β (% control values) / Serum Free Fatty Acids (% control values) / Serum Phospholipids (% control values) / Serum Triglycerides (% control values) / change in vivo at 200 mg/kg/day: normal rats (N), 200 mg/kg/day p.o.; for increased HDL lipids, especially HDL cholesterol: normal rats; for change in vivo at 200 mg/kg/day: Rattus norvegicus, po. The protocol: Effects of diphosphonates of formula (I) on lipid metabolism in normal rats Groups of 4 to 5 normal male Wistar rats, weighing about 200 g were treated with diphosphonates (200 mg/kg/day) p.o. for 4 to 21 days. Water soluble compounds were given in solution in 24 mM bicarbonate buffer. Lipid soluble compounds were given in corn oil. The rats were weighed, sacrificed by decapitation (under light ether anesthesia) after overnight fasting. Blood was collected and serum used for analysis. The following blood parameters reflecting changes in lipid metabolism are reported: […]
free fatty acids measured according to W. G. Duncombe (Clin. Acta 9, 122, 1964) triglycerides enzymatic method (Boehringer Mannheim Kit 126 012) phospholipids: molybdate/vanadate reaction (Boehringer Mannheim Kit 124 974) β-lipoprotein cholesterol was measured after heparin, CaCl2 precipitation according to M. Burstein et al. (La Presse Medicale 43, 974, 1958) and to D. Watson (Clin. Chim. Acta 5, 637, 1960).
(§1) In above Table IV, results are given as % control values. Except for serum calcium, values which differ from control values by less than 15% are considered as non significant (NS).
Serum free fatty acids, triglycerides and phospholipids were measured in normal rats (N) and rats previously fed a cholesterol diet for 10 days (C.F.) Serum α/β cholesterol, total lipids and cholesterol of liver and aorta were determined in normal rats (N) and rats which had previously been fed on high cholesterol diet (C.F.)

The test system of the next assay is tissue cholesterol. The assay can be described thus: Effects in cholesterol fed rats (serum, liver and aorta lipids). It counts as in vivo. Here is the method: Effects of diphosphonates of formula (I) in cholesterol fed rats
In order to increase tissue cholesterol, especially liver, rats were fed a high fat-high cholesterol diet for 10 days to 3 months, with the following diet composition: casein 20%, butter 37%, cellulose 9.1%, dextrose 18,9%, cholesterol 4.5%, sodium cholate 1.8%, minerals 7.3%, vitamins 1%, choline 0.4%.
The rats were then fed normal food and were treated for 10 days to 3 months with different compounds (200 mg/kg/day). Serum parameters described above were measured. Liver and aorta lipids were extracted according to J. Folch et al (J. Biochem. 226, 497, 1957). Total lipids were determined by the sulfophosphovanillic reaction (see N. Zolner and K. Kirsch, Z. Ges. exp. Med. 135, 545, 1962) and cholesterol by the Liebermann-Burchard reaction or appropriate enzymatic reaction.
as §1
Serum free fatty acids, triglycerides and phospholipids were measured in normal rats (N) and rats previously fed a cholesterol diet for 10 days (C.F.)
Serum α/β cholesterol, total lipids and cholesterol of liver and aorta were determined in normal rats (N) and rats which had previously been fed on high cholesterol diet (C.F.)

[1] abbreviates: cholesterol fed rats (C.F), 200 mg/kg/day.
Where [2] appears, read: read-out: Serum Chol. α/β (% control values).
Setting [3] is: read-out: Serum Phospholipids (% control values).
Setting [4] is: read-out: Serum Triglycerides (% control values).

“Also recorded” adds a separate entry of the source. Like-named read-outs stand apart in the source and are kept apart here.

Turning to `COP(=O)(OC)C(O)(C(C)(C)C)P(=O)(OC)OC` [Compound 1], in the assay with lipid metabolism, the “Serum Chol. α/β (% control values)” value is listed as “NS (Except for serum calcium, values which differ from control values by less than 15% are considered as non significant (NS))”; the “Serum Free Fatty Acids (% control values)” value is on record as “NS (Except for serum calcium, values which differ from control values by less than 15% are considered as non significant (NS))”; the “Serum Phospholipids (% control values)” value is recorded as -43%; the “Serum Triglycerides (% control values)” value is “+24%”. In addition, the “property to change lipid metabolism / increase HDL” value in the assay on lipid metabolism (rats) is “do not have these properties”.

With `COP(=O)(OC)C(O)(c1ccccc1)P(=O)(OC)OC` [Compound 2], the “liver total lipids and/or liver cholesterol” value in the assay with tissue cholesterol (cholesterol fed rats) is “decreased significantly”. Moreover, in the assay on tissue cholesterol (setting [1]), the “Aorta Chol. (% control values)” value is reported as “NS (Except for serum calcium, values which differ from control values by less than 15% are considered as non significant (NS))”; the “Aorta Total Lipids (% control values)” value is reported as -30%; the “Liver Chol. (% control values)” value was -50%; the “Liver Total Lipids (% control values)” value is recorded as -24%. In the assay on tissue cholesterol (setting [1]), the “Serum Chol. α/β (% control values)” value was “+88%”; the “Serum Free Fatty Acids (% control values)” value is listed as -56%; the “Serum Phospholipids (% control values)” value is given as “NS (Except for serum calcium, values which differ from control values by less than 15% are considered as non significant (NS))”; the “Serum Triglycerides (% control values)” value is -15%. In the assay with lipid metabolism, the “increased HDL lipids, especially HDL cholesterol” value (from here on “increased HDL lipids”) was “observed most dramatically”; the “Serum Free Fatty Acids (% control values)” value was “NS (Except for serum calcium, values which differ from control values by less than 15% are considered as non significant (NS))”; the “Serum Phospholipids (% control values)” value was “+25%”; the “Serum Triglycerides (% control values)” value is -21%. In the assay with lipid metabolism (rats), the “decreases in serum triglycerides” value is “Significant decreases”, the “increase in serum phospholipid” value is on record as “found to increase” and the “α-cholesterol/β-cholesterol ratio / lipoprotein cholesterol” value is recorded as “highly significant activity”.

For `COP(=O)(OC)C(O)(c1ccc(C)cc1)P(=O)(OC)OC` [Compound 3], the change in vivo at 200 mg/kg/day in the assay on lipid metabolism (setting [2]), in the assay with lipid metabolism (read-out: Serum Free Fatty Acids (% control values)), in the assay on lipid metabolism (setting [3]) and with lipid metabolism (setting [4]) was under 15% throughout.

For the compound `COP(=O)(OC)C(O)(c1ccc(F)cc1)P(=O)(OC)OC` [Compound 5], the change in vivo at 200 mg/kg/day with lipid metabolism (setting [2]) was 64%; in the assay with lipid metabolism (setting [4]), 27%. Moreover, the “increased HDL lipids” value with lipid metabolism is given as “observed most dramatically”. In addition, the “α-cholesterol/β-cholesterol ratio / lipoprotein cholesterol” value in the assay with lipid metabolism (rats) was “highly significant activity”.

In the case of `COP(=O)(OC)OC(C1CCCCC1)P(=O)(OC)OC` (stereo not shown) [Compound 12], in the assay with lipid metabolism, the “Serum Chol. α/β (% control values)” value is “NS (Except for serum calcium, values which differ from control values by less than 15% are considered as non significant (NS))”; the “Serum Phospholipids (% control values)” value is recorded as “NS (Except for serum calcium, values which differ from control values by less than 15% are considered as non significant (NS))”; the “Serum Triglycerides (% control values)” value is -46%. In the assay on lipid metabolism (rats), the “decreases in serum triglycerides” value is reported as “Significant decreases”.

As for `COP(=O)(OC)OC(c1ccccc1Cl)P(=O)(OC)OC` (stereo not shown) [Compound 14], the results for the change in vivo at 200 mg/kg/day in the assay with lipid metabolism (setting [2]), in the assay on lipid metabolism (setting [3]) and in the assay with lipid metabolism (setting [4]) were 34%, 22% and -42%, respectively.

As to `COP(=O)(OC)OC(c1cccc(Cl)c1)P(=O)(OC)OC` (stereo not shown) [Compound 15], the figures for the change in vivo at 200 mg/kg/day in the assay on lipid metabolism (setting [2]), with lipid metabolism (setting [3]) and in the assay on lipid metabolism (setting [4]) were 69%, under 15% and -37%, respectively. For the same compound, in the assay on lipid metabolism, the “increased HDL lipids” value was “observed most dramatically”. Further, in the assay with lipid metabolism (rats), the “α-cholesterol/β-cholesterol ratio / lipoprotein cholesterol” value was “highly significant activity”.

Turning to `COP(=O)(OC)OC(c1ccc(F)cc1)P(=O)(OC)OC` (stereo not shown) [Compound 17], the change in vivo at 200 mg/kg/day in the assay with lipid metabolism (setting [2]) was 81%; in the assay on lipid metabolism (setting [3]), under 15%; in the assay with lipid metabolism (setting [4]) it was under 15%. Also, in the assay with lipid metabolism, the “increased HDL lipids” value is listed as “observed most dramatically”. Besides, the “α-cholesterol/β-cholesterol ratio / lipoprotein cholesterol” value in the assay on lipid metabolism (rats) is “highly significant activity”.

Turning to `COP(=O)(OC)OC(c1cc(C)ccc1C)P(=O)(OC)OC` (stereo not drawn) [Compound 19, Dimethyl α-(dimethoxyphosphinyl)2,5-dimethylbenzyl phosphate], the change in vivo at 200 mg/kg/day with lipid metabolism (setting [2]) was 15%; in the assay on lipid metabolism (setting [3]) it was under 15%; with lipid metabolism (setting [4]), under 15%. Besides, in the assay with lipid metabolism (rats), the “decreases in serum triglycerides” value is on record as “Significant decreases”.

Consider `COP(=O)(OC)OC(C(C)(C)c1ccccc1)P(=O)(OC)OC` (stereo not shown) [Compound 20], for which the results for the change in vivo at 200 mg/kg/day with lipid metabolism (setting [2]), with lipid metabolism (setting [3]) and in the assay on lipid metabolism (setting [4]) were 25%, 15% and 36%, respectively. The “increase in serum phospholipid” value in the assay with lipid metabolism (rats) is “found to increase”.

Turning to `COP(=O)(OC)OC(C(C)(C)Cc1ccc(Cl)cc1)P(=O)(OC)OC` (stereo not shown) [Compound 22], the change in vivo at 200 mg/kg/day in the assay with lipid metabolism (setting [2]) is -38%; with lipid metabolism (setting [3]), under 15%; in the assay on lipid metabolism (setting [4]), -19%.

Turning to `COP(=O)(OC)OC(c1ccc(C(=O)c2ccc(Cl)cc2)cc1)P(=O)(OC)OC` (stereo not drawn) [Compound 23, Dimethyl [α-(dimethoxyphosphinyl) 4-(4'-chlorobenzoyl)]benzyl phosphate], the results for the change in vivo at 200 mg/kg/day in the assay on lipid metabolism (setting [2]), with lipid metabolism (setting [3]) and in the assay with lipid metabolism (setting [4]) were 55%, 53% and under 15%, respectively. Further, the “increased HDL lipids” value with lipid metabolism is “observed most dramatically”. The “increase in serum phospholipid” value in the assay on lipid metabolism (rats) is listed as “found to increase; also recorded: at least two fold the most active”. The “α-cholesterol/β-cholesterol ratio / lipoprotein cholesterol” value in the assay on lipid metabolism (rats) is given as “highly significant activity”.

Consider `CCCCOP(=O)(OCCCC)OC(c1ccc(Cl)cc1)P(=O)(OCCCC)OCCCC` (stereo not shown) [Compound 25], for which, in the assay on lipid metabolism, the “Serum Chol. α/β (% control values)” value was “NS (Except for serum calcium, values which differ from control values by less than 15% are considered as non significant (NS))”; the “Serum Phospholipids (% control values)” value is recorded as “NS (Except for serum calcium, values which differ from control values by less than 15% are considered as non significant (NS))”; the “Serum Triglycerides (% control values)” value is “NS (Except for serum calcium, values which differ from control values by less than 15% are considered as non significant (NS))”.

As for `CCOP(=O)(OCC)C(CCCc1ccccc1)P(=O)(OCC)OCC` [Compound 29, Tetraethyl 4-phenylbutylidene 1,1-diphosphonate], the change in vivo at 200 mg/kg/day with lipid metabolism (setting [2]) came to 33%; with lipid metabolism (setting [3]), 17%; with lipid metabolism (setting [4]), 46%. Also, the “increase in serum phospholipid” value in the assay on lipid metabolism (rats) was “found to increase”.

Turning to `COP(=O)(OC)C(CCCc1ccccc1)P(=O)(OC)OC` [Compound 37, Tetramethyl 4-phenylbutylidene 1,1-diphosphonate], the change in vivo at 200 mg/kg/day worked out at 49% in the assay on lipid metabolism (setting [2]), 33% in the assay with lipid metabolism (setting [3]) and 42% in the assay with lipid metabolism (setting [4]). Further, in the assay with lipid metabolism, the “increased HDL lipids” value was “observed most dramatically”. The “increase in serum phospholipid” value with lipid metabolism (rats) was “found to increase”. Besides, the “α-cholesterol/β-cholesterol ratio / lipoprotein cholesterol” value in the assay with lipid metabolism (rats) is “highly significant activity”.
